In PubChem BioAssay AID179 (DTP/NCI, 2004):
Calls of active or inactive are those of the source.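 How the source made its calls: active means compounds giving half or more protection of infected cells from virus-caused growth loss, again on retest; inactive means the rest.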

Tested on: CEM cells HIV-1 protection, formazan growth assay
Assay: NCI AIDS Antiviral Assay
Conditions: for IC50: measured here: growth of uninfected CEM cells
Procedure, shortened: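 Category rules: moderately active means at least 50% protection on retest, and confirmed active means 100% protection reproducibly. The underlying data came from a formazan growth assay in HIV-1-infected CEM cells.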

SMILES | EC50 | IC50 | outcome
Cc1cccc(C)c1NC(=O)/C(Cc1nc2ccc([N+](=O)[O-])cc2[nH]c1=O)=N\NC(N)=O | > 417 µM | 126 µM | –
CC(=O)OC(=C(C#N)C#N)c1nccnc1C(=O)O | > 200 µM | > 200 µM | –
O=C1NC2(CCCCC2)C(=O)N1CCN(CCCl)CCCl | > 372 µM | 269 µM | –
CC1C(c2ccccc2)OC(N2CCOCC2)C(C)(C)CN1C (centres undefined) | > 200 µM | > 200 µM | –
C/C(=N\NC(=O)c1cccc2c(=O)c3ccccc3[nH]c12)C1CC[C@H]2[C@@H]3CCC4=C/C(=N\NC(=O)c5cccc6c(=O)c7ccccc7[nH]c56)CC[C@]4(C)[C@H]3CC[C@]12C (some centres undefined) | > 50.1 µM | > 50.1 µM | –
CCOC(=O)C(O)(C(=O)OCC)c1cc(C(C)(C)C)c(O)c(C(C)(C)C)c1 | > 200 µM | 83.2 µM | –
CCCCNc1cc(Nc2ccc(Br)cc2)nc(N)n1 | > 2 µM | 1.07 µM | –
CC1=[N+]([O-])C(C)(C)N(O)C1(C)C | > 200 µM | > 200 µM | –
COc1ccc2nc(NC(=O)C(=O)C(C#N)c3ccc(Cl)c(Cl)c3)sc2c1 (centres undefined) | – | – | inactive
O=C(NNS(=O)(=O)c1ccccc1)c1csc(NC(=S)NC2CCCCC2)n1 | > 72.4 µM | 28.8 µM | –
Nc1nc(Cl)cc(NCC2(CO)COC2)n1 | > 200 µM | > 200 µM | –
Cc1cc(O)cc(C)c1Cl | 162 µM | > 200 µM | –
CC1(C2COC(=O)C2)SCCCS1 (centres undefined) | > 100 µM | 60.3 µM | –
O=C(O)C[C@@H]1[C@@H](O)[C@@H](O)CN2C(=O)c3ccccc3[C@H]12 | > 200 µM | > 200 µM | –
c1ccc(-c2c(-c3cccs3)[nH]c(-c3cccs3)c2-c2ccccn2)nc1 | > 38 µM | 25.7 µM | –
CC(C)C1OC2(C)OC(=N)C1(C#N)C(C#N)(C#N)C2C (centres undefined) | > 200 µM | 12 µM | –
CC1(C)OCN(c2ccc(N3CCOCC3)cc2)Cn2c1nc1ccccc12 | > 200 µM | 64.6 µM | –
Nc1c(N=Nc2ccc(/C=C/c3ccc(N=Nc4cc(S(=O)(=O)O)c5cccnc5c4N)cc3S(=O)(=O)O)c(S(=O)(=O)O)c2)cc(S(=O)(=O)O)c2cccnc12 | > 4.68 µM | > 4.68 µM | –
CN1C(c2ccccc2)N1C (centres undefined) | > 1700 µM | > 1700 µM | –
C#CCN(N=O)C(=O)NCCCCC(NC(C)=O)C(=O)NCc1ccccc1 (centres undefined) | > 646 µM | 56.2 µM | –
CN(C)CCOC1(CC2CCCCC2)CCC(C(C)(C)C)CC1 (centres undefined) | > 200 µM | 8.13 µM | –
Cc1cc(NCCCCCCCCNc2cc(C)nc3cc(N)ccc23)c2ccc(N)cc2n1 | > 8.13 µM | 4.68 µM | –

SMILES | EC50 | IC50 | outcome
CC[C@]1(Cc2ccc(OC)c(OC)c2)C=[N+]([O-])O[C@H](OCc2ccccc2)[C@@H]1OC(C)=O | > 200 µM | 38 µM | –
CC(C)(C)OC(=O)NC1CCCCC1NC(=O)C(=O)NC1CCCCC1NC(=O)OC(C)(C)C (centres undefined) | > 100 µM | > 100 µM | –
CN(/N=C/c1ccccn1)C1=NCCCN1 | > 200 µM | > 200 µM | –
O=C1C2C(C(=O)N1O)N(Cc1ccccc1)C(=O)N2Cc1ccccc1 (centres undefined) | > 708 µM | > 708 µM | –
COC(=O)C1=C(C)NC(CF)=C(C(=O)OC)C1c1cccc2c(=O)c3ccccc3oc12 (centres undefined) | > 200 µM | 3.47 µM | –
C=C1CC2CC(=O)C(O)C(C1)C2 (centres undefined) | > 200 µM | > 200 µM | –
COc1ccc(C2=CC(C(C)=C(C(N)=O)C(N)=O)C=C(c3ccc(Br)cc3)C2)c(OC)c1 (centres undefined) | > 200 µM | 75.9 µM | –
Cc1cc(=O)n(/C=C/C(=O)O)c2ccccc12 | > 200 µM | > 200 µM | –
Cc1ccc2oc(=O)c3c(O)c4cccc(OC5OC(C)C6O[C@@H](c7ccccc7)OC6C5OC5OC(C)C(O)C(O)C5O)c4c4oc(=O)c1c2c34 (some centres undefined) | > 7.24 µM | 0.0324 µM | –
O=C(O)C[C@H]1CCCCC12CCOC2=O (some centres undefined) | – | – | inactive
CN(C)c1ccc(/C=C(\C#N)c2ccc(F)cc2F)cc1 | > 200 µM | 1.2 µM | –
COc1ccc2nc(CC(C)C)c3c(c2c1)-c1ccccc1C3=O | > 11.2 µM | > 11.2 µM | –
Nc1nc(Cl)n2nc[n+](C3C=CC(=O)CC3)c2n1 (centres undefined) | – | – | inactive
O=C1CC(Br)C(c2ccccc2)(c2ccccc2)O1 (centres undefined) | > 81.3 µM | > 81.3 µM | –
O=C1O[C@H]2[C@@H](I)[C@H]3C[C@H]2[C@H]1[C@H]3c1ccccc1 | > 200 µM | > 200 µM | –
COc1ccc(/C=C2\Sc3scc(-c4ccc([N+](=O)[O-])cc4)[n+]3C2=O)cc1OC | > 200 µM | 15.8 µM | –
CC1=CC2CC(C)=C(CC[C@]3(C)CC[C@H]([C@@H](C)C(=O)O)OO3)C(C)(C)C2CC1 (some centres undefined) | – | – | inactive
CCCCSCc1nc2ccccc2c(C)[n+]1[O-] | 234 µM | 437 µM | –
O=c1cc2n(c(=O)[nH]1)C1OC(C(O)C1O)[C@@H]2CCO (some centres undefined) | – | – | inactive
Cn1c2c(c(=O)n(C)c1=O)CN(Cc1ccccc1)CN2 | > 200 µM | > 200 µM | –
O=C1/C(=C/c2cccc(Cl)c2)Cc2ccccc21 | > 28.2 µM | > 28.2 µM | –
CCOC(=O)c1ccc(C(=O)n2ccnc2)[nH]1 | > 200 µM | > 200 µM | –

SMILES | EC50 | IC50 | outcome
Cc1cc(=O)oc(C)c1C(=O)O | > 200 µM | > 200 µM | –
CCNc1ccc(-c2ccccc2)nc1N1CCN(C(=O)c2cc3cc(OC)ccc3[nH]2)CC1 | > 200 µM | 24 µM | –
CC/C(=C(\C#N)c1ccc(Cl)cc1)c1ccc(OCCN(CC)CC)cc1 | > 100 µM | 2.82 µM | –
CCCCCCCCCCCCCCCCP(=O)(O)OP(=O)(O)OCC1OC(n2cnc3c(N)ncnc32)C(O)C1O (centres undefined) | > 100 µM | 19.5 µM | –
CCOC(=O)C1C(=O)CC(C)(O)C(C(=O)OCC)C1c1ccc(OC)cc1 (centres undefined) | > 200 µM | > 200 µM | –
O=c1c2ccccc2nc2sc(/N=C/C=C/c3ccccc3)nn12 | > 200 µM | 41.7 µM | –
CCOC(=O)/C(=C\c1cccc(C#N)c1)P(=O)(OCC)OCC | > 537 µM | 11 µM | –
Cc1cc(S(=O)(=O)Nc2nc(N)nc(N3N=CCC3C)n2)c(SCC(=O)O)cc1Cl (centres undefined) | > 200 µM | > 200 µM | –
Cc1ccc2cc(NC(=O)CN)c3ccc(C)nc3c2n1 | > 20 µM | 3.72 µM | –
Cc1ccccc1NC(=O)C(=O)CC(=O)c1sc(Nc2ccccc2[N+](=O)[O-])nc1C | > 200 µM | > 200 µM | –
CSc1nc(Cl)c2c(n1)Sc1nc3cc4c(cc3n1C2O)OCCO4 (centres undefined) | > 0.2 µM | 0.0794 µM | –
COc1cc(C2c3cc4c(cc3OC3(OC)COC(=O)C23)OCO4)cc(OC)c1OC(C)=O (centres undefined) | > 100 µM | 0.562 µM | –
CCOC(=O)/C(=C/c1ccc([N+](=O)[O-])cc1)C(=O)c1ccccc1 | > 22.4 µM | 13.5 µM | –
COc1ccc(-c2c(O)c3ccc(OC)cc3oc2=O)cc1 | > 200 µM | 155 µM | –
O=C1CCSC2=NCCN12 | – | – | inactive
CC(C)(C)n1c(=O)n2n(c1=O)C1c3cccc4cccc(c34)C2C2c3cccc4cccc(c34)C1n1c(=O)n(C(C)(C)C)c(=O)n12 | > 200 µM | 50.1 µM | –
CC1(C)COC(c2cc3c(cc2Br)OCO3)=N1 | > 209 µM | > 209 µM | –
COC(=O)C(C(=O)C(=O)Nc1ccc(Br)cc1)c1nc2ccc(Cl)cc2[nH]c1=O (centres undefined) | > 75.9 µM | 4.07 µM | –
CC(C)CN1CC(=O)N2CCCN2C(=O)C1 | > 407 µM | > 407 µM | –
COC(=O)/C=C(\C(=O)OC)c1c(C)c(C)c2c(C)cc(C)cc(C)c1-2 | > 200 µM | 16.6 µM | –
COc1ccc(Oc2ccccc2N)cc1 | – | – | inactive
CCN(CC)CCCCCCCNc1c2ccc(Cl)cc2nc2ccc(OC)cc12 | > 2 µM | 0.427 µM | –

SMILES | EC50 | IC50 | outcome
CCOC(=O)C1(C(=O)OCC)CCCN1C(=O)[C@H](CNC(=O)OC(C)(C)C)NC(=O)OCc1ccccc1 | – | – | inactive
NC(=O)N/N=C1\CCc2ccccc2C1 | > 93.3 µM | > 93.3 µM | –
CCCN(CCC)C(=O)Cc1c2n(c3ccccc13)CCCc1ccccc1-2 | > 13.8 µM | > 13.8 µM | –
O=C1CCSc2nc(-c3ccc4c(c3)OCO4)nn21 | > 200 µM | > 200 µM | –
O=C1C(=O)C2(CC1S(=O)(=O)c1ccccc1)c1ccccc1-c1ccccc12 (centres undefined) | – | – | inactive
COc1cc(Br)c(-c2coc3c(OC)c(OC)ccc3c2=O)cc1OC | > 50.1 µM | > 50.1 µM | –
O=C(Nc1ccccc1C(=O)O)C(=Cc1ccccc1O)NC(=O)c1ccccc1 | > 200 µM | > 200 µM | –
COc1nc2c(c(=O)n1C)N[C@H]1[C@H](OC(C)=O)[C@@H](OC(C)=O)CO[C@H]1N2 | > 200 µM | > 200 µM | –
C#CCNC(=O)ON1C(=O)CCC1=O | > 1260 µM | > 1260 µM | –
C=CC(C1=CC(=O)C(OC)=CC1=O)c1ccccc1 (centres undefined) | – | – | inactive
CCCCCCCCCCNC(C)=O | > 200 µM | 85.1 µM | –
CC(C)(CO)N1C(=O)c2ccccc2C1(O)c1ccc(Cl)cc1 (centres undefined) | > 200 µM | 91.2 µM | –
COC1/C=C/OC2(C)Oc3c(C)c(O)c4c(O)c(c(C=NN5CCCCCCCCCCCC5)c(O)c4c3C2=O)NC(=O)/C(C)=C/C=C/C(C)C(O)C(C)C(O)C(C)C(OC(C)=O)C1C (centres undefined) | – | – | inactive
COC(=O)c1c(C(=O)OC)c2ccccn2c1-c1cc(C)cc2c1C(=O)C=CC2=O | > 200 µM | 0.468 µM | –
COCc1c(CO)cnc(C)c1OC1OC(CO)C(O)C(O)C1O (centres undefined) | > 724 µM | > 724 µM | –
O=C(CCN1CCN(c2ccccc2)CC1)N1CCc2c([nH]c3ccccc23)C1c1cccnc1 (centres undefined) | > 15.5 µM | > 15.5 µM | –
C=CCn1c(N)c(C#N)c(C#N)c1-c1ccccc1 | > 200 µM | > 200 µM | –
O=c1cn[nH]c2c(Br)cc(Br)cc12 | > 70.8 µM | > 70.8 µM | –
CCc1cc2c(Nc3ccccc3)c3c(nc2s1)CCCC3 | > 85.1 µM | > 85.1 µM | –
COC(=O)N1CC=CC2(CCOCc3ccccc3)CC[C@@](O)(c3ccccc3NC(=O)C(C)(C)C)C(=O)C12 (some centres undefined) | > 35.5 µM | > 35.5 µM | –
CN(C)C(=S)NC(=S)Nc1ccc2ccccc2c1 | – | – | inactive
Cc1ccc(CC2(C(=O)O)Cc3ccc(C)cc3C2)cc1 (centres undefined) | > 200 µM | 57.5 µM | –
